Values quoted from earlier work in patent publication US20090202672A1, “AQUACULTURE FEED, PRODUCTS, AND METHODS COMPRISING BENEFICIAL FATTY ACIDS” (Monsanto Company, priority 2008, published 2009).

Assays:
[1] = system: cell line from turbot, Scopthalmus maximus; details: Ghioni et al 1999
[2] = system: established cell line from Atlantic salmon, Salmo salar; details: Ghioni et al 2004

## CC/C=C\C/C=C\C/C=C\C/C=C\CCCCC(=O)O [SDA, stearidonic acid]
[1]
  Conversion of SDA to EPA: limited conversion of SDA to EPA
[2]
  Bioconversion of SDA to EPA and DHA: bioconversion of SDA to EPA, but not DHA
